Reference: patent publication US20240351986A1, “UREA COMPOUND CONTAINING 2-HETEROAROMATIC RING SUBSTITUTION, PREPARATION METHOD THEREFOR AND USE THEREOF” (SHANGHAI INSTITUTE OF MATERIA MEDICA, CHINESE ACADEMY OF …, priority 2021, published 2024)

Target: T1, Recombinant human CDK9/cyclin T1 (Homo sapiens, UniProt P50750)
T1 construct: purchased Carna bioscience 04-110
Assay: CDK9 enzyme inhibitory activity (ADP-Glo kinase assay)
Assay type: biochemical
Settings: CDK9 enzyme activity, average of two independent repeats; for inhibition at 0.01 µM: read-out: Inhibition rate at different concentrations (%) 10 nM; for inhibition at 0.1 µM: compound 100 nM, read-out: Inhibition rate at different concentrations (%) 100 nM
Method: Experimental method: Recombinant human CDK9/cyclin T1 (Carna bioscience, Cat #04-110) was diluted with dilution buffer (20 mM Tris HCl (pH 7.5), 0.02% Triton X-100, 0.01% BSA, 2 mM DTT, 0.5 mM Na3VO4, 10% Glycerol) to […], the substrates CDK7/9 tide (ThermoFisher, Cat #PV5090) and ATP (sigmaaldrich, Cat #A1852) were diluted with assay buffer (25 mM Tris HCl (pH7.5), 10 mM MgCl2, 0.5 mM EGTA (pH 8), 0.5 mM Na3VO4, 5 mMb-glycerol phosphate, 0.1% Triton X-100, 2.5 mM DTT) to final concentrations of 100 μM and […] respectively, aliquot and set aside. 2 μl of diluted recombinant human CDK9/cyclin T1, 1 μl of test compound, and 2 μl of diluted substrate CDK7/9 tide containing ATP were added to the 384-well plate. […] The positive control was the well in which enzyme and substrate were co-incubated, and the negative control was the well in which dilution buffer and substrate were co-incubated. The inhibition rate was calculated according to the following formula.

T1 sequence (P50750 whole entry): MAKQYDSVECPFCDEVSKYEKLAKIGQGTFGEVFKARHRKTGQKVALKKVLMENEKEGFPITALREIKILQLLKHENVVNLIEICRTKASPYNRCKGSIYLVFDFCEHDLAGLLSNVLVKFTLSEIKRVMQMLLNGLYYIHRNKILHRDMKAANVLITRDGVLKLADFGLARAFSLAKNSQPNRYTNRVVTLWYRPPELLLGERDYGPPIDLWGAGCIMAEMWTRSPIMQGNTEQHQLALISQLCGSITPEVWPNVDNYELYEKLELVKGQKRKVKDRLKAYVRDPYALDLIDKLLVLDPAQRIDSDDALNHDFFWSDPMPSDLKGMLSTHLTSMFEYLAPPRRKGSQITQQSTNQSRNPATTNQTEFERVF
T1 sequence (O60563 whole entry partner): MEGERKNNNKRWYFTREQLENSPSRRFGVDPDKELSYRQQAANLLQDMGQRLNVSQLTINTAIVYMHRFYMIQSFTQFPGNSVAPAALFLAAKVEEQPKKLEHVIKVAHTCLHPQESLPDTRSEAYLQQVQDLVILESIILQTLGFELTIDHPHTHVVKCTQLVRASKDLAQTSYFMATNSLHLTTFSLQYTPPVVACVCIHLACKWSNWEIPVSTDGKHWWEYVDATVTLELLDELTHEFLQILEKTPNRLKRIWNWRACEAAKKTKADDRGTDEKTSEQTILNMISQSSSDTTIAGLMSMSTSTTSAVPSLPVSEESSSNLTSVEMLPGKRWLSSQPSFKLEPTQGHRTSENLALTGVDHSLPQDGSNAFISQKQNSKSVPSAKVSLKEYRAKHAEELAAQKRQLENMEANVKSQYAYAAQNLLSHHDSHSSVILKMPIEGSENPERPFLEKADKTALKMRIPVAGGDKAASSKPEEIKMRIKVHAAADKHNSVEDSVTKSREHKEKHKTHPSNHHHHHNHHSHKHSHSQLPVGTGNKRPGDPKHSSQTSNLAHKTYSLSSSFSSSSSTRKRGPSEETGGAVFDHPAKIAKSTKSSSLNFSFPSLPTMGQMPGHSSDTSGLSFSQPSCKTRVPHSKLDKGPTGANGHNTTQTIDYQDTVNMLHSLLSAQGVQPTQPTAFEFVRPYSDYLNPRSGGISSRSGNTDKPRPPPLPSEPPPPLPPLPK

inhibition at 0.01 µM (compound 10 nM) | inhibition at 0.1 µM | Inhibition rate at different concentrations (%) 10 nM (compound 10 nM, 0.01 µM) | SMILES
18.1% | 59.8% |  | COc1cc(F)ccc1-c1cc(NC(=O)NC2CCC(NC(C)=O)CC2)ncc1C#N (centres unmarked) [Example 32, N-((1r,4r)-4-(3-(5-cyano-4-(4-fluoro-2-methoxyphenyl)pyridin-2-yl)ureido)cyclohexyl)acetamide]
11.9% | 81% |  | COc1cc(F)ccc1-c1ccnc(NC(=O)Nc2ccc(F)nc2)c1 [Example 33, 1-(4-(4-fluoro-2-methoxyphenyl)pyridin-2-yl)-3(6-fluoropyridin-3-yl)urea]
7% | 54% |  | COCCNCCCNC(=O)Nc1cc(-c2ccc(F)cc2OC)ccn1 [Example 34, 1-(4-(4-fluoro-2-methoxyphenyl)pyridin-2-yl)-3-(3-((2-methoxyethyl)amino)propyl)urea]
30% | 62.7% |  | COc1cc(F)ccc1-c1ccnc(NC(=O)NC2CC(N)C2)c1 (centres unmarked) [Example 35, 1-((1r,3r)-3-aminocyclobutyl)-3-(4-(4-fluoro-2-methoxyphenyl)pyridin-2-yl)urea]
16.5% | 62.8% |  | COc1cc(F)ccc1-c1ccnc(NC(=O)NC2CC(O)C2)c1 (centres unmarked) [Example 36, 1-(4-(4-fluoro-2-methoxyphenyl)pyridin-2-yl)-3((1r,3r)-3-hydroxycyclobutyl)urea]
10% | 60% |  | COc1cc(F)ccc1-c1ccnc(NC(=O)NC2CCCNCC2)c1 (centres unmarked) [Example 37, 1-(azepan-4-yl)-3-(4-(4-fluoro-2-methoxyphenyl)pyridin-2-yl)urea]
51% | 27% |  | COc1cc(F)ccc1-c1ccnc(NC(=S)NC2CCC(N)CC2)c1 (centres unmarked) [Example 38, 1-((1r,4r)-4-aminocyclohexyl)-3-(4-(4-fluoro-2-methoxyphenyl)pyridin-2-yl)thiourea]
28% | 55% |  | COc1cc(F)ccc1-c1cc(NC(=O)NC2CCC(NC(=O)OC(C)(C)C)CC2)ncn1 (centres unmarked) [Example 39, tert-butyl ((1r,4r)-4-(3-(6-(4-fluoro-2-methoxyphenyl)pyrimidin-4-yl)ureido)cyclohexyl)carbamate]
25.3% | 59.5% |  | COc1cc(F)ccc1-c1cc(NC(=O)NC2CCC(NC(C)=O)CC2)ncn1 (centres unmarked) [Example 40, N-((1r,4r)-4-(3-(6-(4-fluoro-2-methoxyphenyl)pyrimidin-4-yl)ureido)cyclohexyl)acetamide]
38.1% | 70.2% |  | COc1cc(F)ccc1-c1ccnc(NC(=O)NC2CCC(NC(C)=O)CC2)n1 (centres unmarked) [Example 41, N-((1r,4r)-4-(3-(4-(4-fluoro-2-methoxyphenyl)pyrimidin-2-yl)ureido)cyclohexyl)acetamide]
44% | 75% |  | Cc1c(-c2cc(NC(=O)NC3CCC(N)CC3)ncc2Cl)cnn1C (centres unmarked) [Example 42, 1-((1r,4r)-4-aminocyclohexyl)-3-(5-chloro-4-(1,5-dimethyl-1H-pyrazol-4-yl)pyridin-2-yl)urea]
49% | 87.3% |  | CC(=O)NC1CCC(NC(=O)Nc2cc(-c3cnn(C)c3C)c(Cl)cn2)CC1 (centres unmarked) [Example 43, N-((1r,4r)-4-(3-(5-chloro-4-(1,5-dimethyl-1H-pyrazol-4-yl)pyridin-2-yl)ureido)cyclohexyl)acetamide]
 | 96% | 83.0% | CC1(C)Cc2c(-c3cc(NC(=O)NC4CCC(N)CC4)ncc3Cl)cnn2C1 (centres unmarked) [Example 44, 1-((1r,4r)-4-aminocyclohexyl)-3-(5-chloro-4-(5,5-dimethyl-5,6-dihydro-4H-pyrrole[1,2-b]pyrazole-3-yl)pyridin-2-yl)urea]
48.9% | 94.3% |  | CC1(C)Cc2c(-c3cc(NC(=O)NC4CCC(O)CC4)ncc3Cl)cnn2C1 (centres unmarked) [Example 45, 1-(5-chloro-4-(5,5-dimethyl-5,6-dihydro-4H-pyrrolo[1,2-b]pyrazol-3-yl)pyridin-2-yl)-3-((1r,4r)-4-hydroxycyclohexyl)urea]
54% | 74% |  | CN(C)CC(=O)NC1CCC(NC(=O)Nc2cc(-c3cnn4c3CC(C)(C)C4)c(Cl)cn2)CC1 (centres unmarked) [Example 48, N-((1r,4r)-4-(3-(5-chloro-4-(5,5-dimethyl-5,6-dihydro-4H-pyrrolo [1,2-b]pyrazol-3-yl)pyridin-2-yl)ureido)cyclohexyl)-2-(dimethylamino)acetamide]
58% | 89.2% |  | CC1(C)Cc2c(-c3cc(NC(=O)NC4CCC(NC(=O)C5CC5)CC4)ncc3Cl)cnn2C1 (centres unmarked) [Example 49]
53.2% | 95.1% |  | CC1(C)Cc2c(-c3cc(NC(=O)NC4CCC(NC(=O)C5COC5)CC4)ncc3Cl)cnn2C1 (centres unmarked) [Example 50, N-((1r,4r)-4-(3-(5-chloro-4-(5,5-dimethyl-5,6-dihydro-4H-pyrrolo[1,2-b]pyrazol-3-yl)pyridin-2-yl)ureido)cyclohexyl) oxetane-3-carboxamide]
60.2% | 92.8% |  | CC(=O)NC1CCC(NC(=O)Nc2cc(-c3cnn4c3CC(C)(C)C4)c(F)cn2)CC1 (centres unmarked) [Example 51, N-((1r,4r)-4-(3-(4-(5,5-dimethyl-5,6-dihydro-4H-pyrrolo[1,2-b]pyrazol-3-yl)-5-fluoropyridin-2-yl)ureido)cyclohexyl)acetamide]
39.7% | 78.5% |  | CC(=O)NC1CCC(NC(=O)Nc2cc(-c3cnn4c3CC(C)(C)C4)c(C)cn2)CC1 (centres unmarked) [Example 52, N-((1r,4r)-4-(3-(4-(5,5-dimethyl-5,6-dihydro-4H-pyrrolo[1,2-b]pyrazol-3-yl-S-methylpyridin-2-yl)ureido)cyclohexyl)acetamide]
40.3% | 59.8% |  | CC(=O)NC1CCC(NC(=O)Nc2cc(-c3cnn4c3CC(C)(C)C4)c(C3CC3)cn2)CC1 (centres unmarked) [Example 53, N-((1r,4r)-4-(3-(4-(5,5-dimethyl-5,6-dihydro-4H-pyrrolo[1,2-b]pyrazol-3-yl)-5-cyclopropylpyridin-2-yl)ureido)cyclohexyl)acetamide]
70.8% | 97.4% |  | [2H]C([2H])([2H])C(=O)NC1CCC(NC(=O)Nc2cc(-c3cnn4c3CC(C)(C)C4)c(Cl)cn2)CC1 (centres unmarked) [Example 54, N-((1r,4r)-4-(3-(5-chloro-4-(5,5-dimethyl-5,6-dihydro-4H-pyrrolo[1,2-b]pyrazol-3-yl)pyridin-2-yl)ureido)cyclohexyl)acetamide-2,2,2-d3]
61.3% | 93.1% |  | COCC(C)NC1CCC(NC(=O)Nc2cc(-c3cnn4c3CC(C)(C)C4)c(Cl)cn2)CC1 (centres unmarked) [Example 55, 1-(5-chloro-4-(5,5-dimethyl-5,6-dihydro-4H-pyrrolo[1,2-b]pyrazol-3-yl)pyridin-2-yl)-3-((1r,4r)-4-((1-methoxypropan-2-yl)amino)cyclohexyl)urea]
44.9% | 95.2% |  | CN(C)CCNC1CCC(NC(=O)Nc2cc(-c3cnn4c3CC(C)(C)C4)c(Cl)cn2)CC1 (centres unmarked) [Example 56, 1-(5-chloro-4-(5,5-dimethyl-5,6-dihydro-4H-pyrrolo[1,2-b]pyrazol-3-yl)pyridin-2-yl)-3-((1r,4r)-4-((2-(dimethylamino)ethyl)amino)cyclohexyl)urea]
55% | 86.5% |  | CC1(C)Cc2c(-c3cc(NC(=O)NC4CCC(NCCOC(F)(F)F)CC4)ncc3Cl)cnn2C1 (centres unmarked) [Example 57]
65.1% | 98.2% |  | [2H]C([2H])([2H])OCCNC1CCC(NC(=O)Nc2cc(-c3cnn4c3CC(C)(C)C4)c(Cl)cn2)CC1 (centres unmarked) [Example 58, 1-(5-chloro-4-(5,5-dimethyl-5,6-dihydro-4H-pyrrolo[1,2-b]pyrazol-3-yl)pyridin-2-yl)-3-((1r,4r)-4-((2-(methoxy-d3)ethyl)amino)cyclohexyl)urea]
72% | 62% |  | CCNC1CCC(NC(=O)Nc2cc(-c3cnn4c3CC(C)(C)C4)c(Cl)cn2)CC1 (centres unmarked) [Example 59, 1-(5-chloro-4-(5,5-dimethyl-5,6-dihydro-4H-pyrrolo[1,2-b]pyrazol-3-yl)pyridin-2-yl)-3-((1r,4r)-4-(ethylamino)cyclohexyl)urea]
49% | 87.3% |  | CC(C)NC1CCC(NC(=O)Nc2cc(-c3cnn4c3CC(C)(C)C4)c(Cl)cn2)CC1 (centres unmarked) [Example 60, 1-(5-chloro-4-(5,5-dimethyl-5,6-dihydro-4H-pyrrolo[1,2-b]pyrazol-3-yl)pyridin-2-yl)-3-((1r,4r)-4-(isopropylamino)cyclohexyl)urea]
58.3% | 85.1% |  | CC1(C)Cc2c(-c3cc(NC(=O)NC4CCC(NCCF)CC4)ncc3Cl)cnn2C1 (centres unmarked) [Example 61, 1-(5-chloro-4-(5,5-dimethyl-5,6-dihydro-4H-pyrrolo[1,2-b]pyrazol-3-yl)pyridin-2-yl)-3-((1r,4r)-4-((2-fluoroethyl)amino)cyclohexyl)urea]
